The text below walks through data of article PMC11040653, “Fluorescent carbazole-derived α-amino acids: structural mimics of tryptophan” (Chemical Science, 2024).

Details of series [1]: method as in PMID 30957824. The following applies: cited from earlier work. The source says:
In combination with fluorescent spectroscopy, α-amino acids have also been used for molecular imaging, providing a method to study and visualise cellular processes in real time.[3] […] Furthermore, their occurrence at multiple sites within a protein can complicate spectroscopic analysis. To overcome these issues, many studies utilise extrinsic fluorescent labels.[4] However, these are typically large chromo ...

Series [2] in a line: Fluorescence quantum yield (comparative method, anthracene and L-tryptophan standards) and brightness. The following applies: for Φ F (quantum yield): anthracene and L-tryptophan as standards, five concentrations, absorption below 0.1. It is filed as physicochemical. As to the method:
(§1) Next, the photophysical properties of amino acids 13a–13e were measured.[22,23] As it was important to identify an amino acid that could be used as a probe for different applications, the photophysical properties were assessed in both an organic solvent (methanol) and water (Table 2).
(§2) 5. Photophysical Data for a-Amino Acids 13a–e
(§3) Absorption and emission data were recorded using the following instruments:
(§4) 1. UV-Vis spectra were recorded on a Perkin Elmer Lamda 25 instrument. Fluorescence spectra were recorded on a Shimadzu RF-5301PC spectrofluorophotometer. Emission data were measured using excitation and emission bandpass filters of 3 nm.
2. Both UV-Vis spectra and fluorescence spectra were recorded on a Horiba Duetta Fluorescence and Absorbance spectrometer. Absorbance spectra were recorded with an integration time of 0.05 s, and a band pass of 5 nm. Fluorescence spectra were recorded with and excitation and emission band pass of 5 nm, an integration time of 2 s, and with detector accumulations set to 1.
Quantum yields were determined using a comparative method against two standards. Anthracene (Φ = 0.27, in ethanol) and ʟ-tryptophan (Φ = 0.14 in water) were used as standard references.9 The integrated fluorescence intensity of each compound was determined from the emission spectra given.
Measurements were performed at five different concentrations. Concentrations were chosen to ensure the absorption value was below 0.1 to avoid re-absorption effects. Integrated fluorescence intensity was plotted as a function of the measured absorbance and a linear fit was calculated. The resultant gradient was then used to calculate the quantum yield, using the equation below: […]
Subscript ST signifies the quantities associated with the quantum yield standard. Subscript X signifies the quantities associated with the novel compound. GradX is the determined gradient associated with the novel compound. GradST is the determined gradient associated with quantum yield standard. η is the refractive index of the solvent used in the fluorescence measurements. η = 1.333 for water, 1.361 for ethanol and 1.331 for methanol.

The nature of series [3]: Solvatochromism of 13c–13e (emission in various solvents). The format is physicochemical. The following applies: emission in solvents of different polarity.
Protocol: Measurements were performed at five different concentrations. […] Integrated fluorescence intensity was plotted as a function of the measured absorbance and a linear fit was calculated. […]
Subscript ST signifies the quantities associated with the quantum yield standard. Subscript X signifies the quantities associated with the novel compound. […]
The nature of series [4]: UV-Vis absorption and fluorescence emission spectra of amino acids 13a–e. It is filed as physicochemical. The following applies: for λ Em / λ Em (second wavelength) / λ Abs: 5 μM; for λ Em / λ Em (second wavelength): fluorescence; for λ Abs: UV-Vis. Here is the method: as §1, §2, §3, §4
2. Both UV-Vis spectra and fluorescence spectra were recorded on a Horiba Duetta Fluorescence and Absorbance spectrometer. Absorbance spectra were recorded with an integration time of 0.05 s, and a band pass of 5 nm. Fluorescence spectra were recorded with and excitation and emission band pass of 5 nm, an integration time of 2 s, and with detector accumulations set to 1. […]

Series [5] is described as follows: Circular dichroism spectroscopy of modified TrpZip1 peptide. It is filed as physicochemical. As to the method: Following successful preparation of the carbazole α-amino acids, these were investigated as structural mimics of tryptophan. The effect of substituting amino acid 13e for a tryptophan residue in a well-characterised designed peptide was studied. The beta hairpin TrpZip1 was chosen as a model of beta structure.[21] An Fmoc-derivative of amino acid 13e was prepared under standard conditions and incorporated into the peptide using SPPS protocols. The resulting peptide, 14 (Table 1) was purified by reverse phase HPLC and characterised using high resolution electrospray ionisation mass spectrometry.

For series [6] the following is noted: ethanol; standard reference; ref 9 (supplement); cited from earlier work. Here is the method:
page 24: 5. Photophysical Data for a-Amino Acids 13a–e Absorption and emission data were recorded using the following instruments: 1. UV-Vis spectra were recorded on a Perkin Elmer Lamda 25 instrument. Fluorescence spectra were recorded on a Shimadzu RF-5301PC spectrofluorophotometer. Emission data were measured using excitation and emission bandpass filters of 3 nm. 2. Both UV-Vis spectra and fluorescence spectra were recorded on a Horiba Duetta Fluorescence and Absorbance spectrometer. Absorbance spectra were recorded with an integration time of 0.05 s, and a band pass of 5 nm. Fluorescence ...

No end group written: not given here. 13e = not defined here

As to `N#Cc1cccc2[nH]cc(C[C@H](N)C(=O)O)c12` [compound 3, L-4-cyanotryptophan], the “fluorescence lifetime” value in series [1] is on record as “long fluorescence lifetime”.
Consider `Cl.N[C@@H](Cc1ccc2[nH]c3cc(C(F)(F)F)ccc3c2c1)C(=O)O` [amino acid 13e, (2S)-2-amino-3-(7-trifluoromethyl-9H-carbazol-3’-yl)propanoic acid hydrochloride], for which, in series [2] (MeOH), the Brightness is 700 cm⁻¹ M⁻¹ and the “Φ F (quantum yield)” value was found to be 0.06. Moreover, in series [2] (Water), the Brightness turned out to be 3360 cm⁻¹ M⁻¹ and the “Φ F (quantum yield)” value is on record as 0.24. Moreover, in series [2] (water relative to methanol), the “increase in brightness in water” value is reported as about 5 fold; the “ε and quantum yield in water” value was “enhanced in water”. Also, the “solvatochromism” value in series [3] is given as “minimal solvatochromism”. Moreover, in series [4] (MeOH), the “ε (molar attenuation coefficient)” value is reported as 11 600 cm^−1 M^−1, the “λ Em” value is given as 365 nm and the “λ Em (second wavelength)” value was found to be 378 nm. Besides, in series [4] (Water), the “ε (molar attenuation coefficient)” value is 14 000 cm^−1 M^−1, the “λ Abs” value is listed as 348 nm and the “λ Em” value stood at 380 nm.
On to “peptide 14: TrpZip1 modified with amino acid 13e (SWTWEGNK-{13e-Thr-Trp-Lys-NH2}; reading uncertain)”, for which, in series [5] (CD, carbazole amino acid 13e replacing tryptophan in TrpZip1), the “secondary structure” value is recorded as “preserved the original secondary structure”. In series [5] (circular dichroism), this compound came in with a CD maximum of 228 nm and a CD minimum of 214 nm. In addition, the “near-UV CD signal” value in series [5] (circular dichroism, indicative of ordered aromatic side chains) is 280–310 nm.
As to `COc1ccc2c(c1)[nH]c1ccc(C[C@H](N)C(=O)O)cc12.Cl` [amino acid 13b, (2S)-2-Amino-3-(7-methoxy-9H-carbazol-3’-yl)propanoic acid hydrochloride], in series [2] (MeOH), the Brightness is 4450 cm⁻¹ M⁻¹ and the “Φ F (quantum yield)” value is given as 0.35. Besides, in series [2] (Water), the Brightness amounted to 5200 cm⁻¹ M⁻¹ and the “Φ F (quantum yield)” value is on record as 0.43. In series [4] (MeOH), the “ε (molar attenuation coefficient)” value was 12 700 cm^−1 M^−1, the “λ Abs” value amounted to 329 nm and the “λ Em” value worked out at 354 nm. For the same compound, in series [4] (Water), the “ε (molar attenuation coefficient)” value is on record as 12 100 cm^−1 M^−1, the “λ Abs” value is listed as 331 nm and the “λ Em” value amounted to 357 nm.
Turning to `Cl.N[C@@H](Cc1ccc2[nH]c3ccccc3c2c1)C(=O)O` [amino acid 13a, (2S)-2-Amino-3-(9H-carbazol-3’-yl)propanoic acid hydrochloride], in series [2] (MeOH), the Brightness is 5120 cm⁻¹ M⁻¹ and the “Φ F (quantum yield)” value is listed as 0.31. Moreover, in series [2] (Water), the Brightness was 2460 cm⁻¹ M⁻¹ and the “Φ F (quantum yield)” value is 0.28. Also, in series [4] (MeOH), the “ε (molar attenuation coefficient)” value is 16 500 cm^−1 M^−1, the “λ Abs” value was found to be 342 nm, the “λ Em” value worked out at 350 nm and the “λ Em (second wavelength)” value is 366 nm. Besides, in series [4] (Water), the “ε (molar attenuation coefficient)” value is 8800 cm⁻¹ M⁻¹, the “λ Abs” value was 341 nm, the “λ Em” value is recorded as 352 nm and the “λ Em (second wavelength)” value came out at 366 nm.
As for `Cl.N[C@@H](Cc1ccc2[nH]c3ccc4ccccc4c3c2c1)C(=O)O` [amino acid 13c, (2S)-2-Amino-3-(7H-benzo[c]carbazol-10-yl)propanoic acid hydrochloride], in series [2] (MeOH), the Brightness is on record as 12 240 cm^−1 M^−1 and the “Φ F (quantum yield)” value is given as 0.76. Moreover, in series [2] (Water), the Brightness stood at 6430 cm⁻¹ M⁻¹ and the “Φ F (quantum yield)” value came to 0.59. Further, the “solvatochromism” value in series [3] is recorded as “minimal solvatochromism”. Also, in series [4] (MeOH), the “ε (molar attenuation coefficient)” value is recorded as 16 100 cm^−1 M^−1, the “λ Abs” value amounted to 351 nm, the “λ Em” value was 371 nm and the “λ Em (second wavelength)” value amounted to 388 nm. Besides, in series [4] (Water), the “ε (molar attenuation coefficient)” value is listed as 10 900 cm^−1 M^−1, the “λ Em” value amounted to 377 nm and the “λ Em (second wavelength)” value was 390 nm.
For `c1ccc2cc3ccccc3cc2c1` [Anthracene], the “quantum yield of standard” value in series [6] is 0.27.
